Publication PMC4296562 (Analytical biochemistry, 2014)

Columns and labels:
MurX [1] = biological target: T1, MurX (Mycobacterium tuberculosis, UniProt P9WMW7); format: biochemical; conditions: for MurX inhibition (%) 0.1 μM: inhibitor 0.1 μM; for MurX inhibition (%) 0.1 μM / MurX inhibition (%) 1 μM / MurX inhibition (%) 10 μM / MurX inhibition (%) 100 μM: 2 75 μM, neryl phosphate 6, P-60, 26 °C, 3h; for MurX inhibition (%) 1 μM: inhibitor 1 μM; for MurX inhibition (%) 10 μM: inhibitor 10 μM; for MurX inhibition (%) 100 μM: inhibitor 100 μM; for IC50: neryl phosphate assay, obtained three times, ± standard error of the mean
T1 sequence (P9WMW7 whole entry): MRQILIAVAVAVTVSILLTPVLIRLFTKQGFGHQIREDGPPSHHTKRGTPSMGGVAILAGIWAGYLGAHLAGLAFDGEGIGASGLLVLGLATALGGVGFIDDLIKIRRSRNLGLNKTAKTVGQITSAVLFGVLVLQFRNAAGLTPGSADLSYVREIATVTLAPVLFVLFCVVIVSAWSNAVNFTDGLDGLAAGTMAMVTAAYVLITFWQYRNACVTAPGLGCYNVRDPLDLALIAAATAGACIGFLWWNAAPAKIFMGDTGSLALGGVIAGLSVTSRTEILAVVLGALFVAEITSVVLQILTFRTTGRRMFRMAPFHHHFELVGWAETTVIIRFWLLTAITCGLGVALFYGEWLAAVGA

MraY-MurG = conditions: no reference given; cited from earlier work
MurX [2] = biological target: T1, MurX
Water-solubility = format: physicochemical

| Molecule | MurX inhibition (%) 0.1 μM (MurX [1]) [%] | MurX inhibition (%) 1 μM (MurX [1]) [%] | MurX inhibition (%) 10 μM (MurX [1]) [%] | MurX inhibition (%) 100 μM (MurX [1]) [%] | also measured |
| --- | --- | --- | --- | --- | --- |
| CO[C@H]1[C@@H](O)[C@H](n2ccc(=O)[nH]c2=O)O[C@@H]1[C@@H](O[C@H]1OC(C(=O)N[C@H]2CCCCNC2=O)=C[C@H](O)[C@@H]1O)C(N)=O [Capuramycin (7), Capuramycin] | 36.6 | 88.4 | 100 | 100 | – |
| CN[C@H](CC(C)C)C(=O)N[C@H]1C(=O)N[C@@H](CC(N)=O)C(=O)N[C@H]2C(=O)N[C@H]3C(=O)N[C@H](C(=O)N[C@H](C(=O)O)c4cc(O)cc(O)c4-c4cc3ccc4O)[C@H](O)c3ccc(c(Cl)c3)Oc3cc2cc(c3O[C@@H]2O[C@H](CO)[C@@H](O)[C@H](O)[C@H]2O[C@H]2C[C@](C)(N)[C@H](O)[C@H](C)O2)Oc2ccc(cc2Cl)[C@H]1O [Vancomycin] | 0 | 0 | 0 | 0 | MurX inhibitory activity (MurX [1]; even at 100 μM concentrations): did not inhibit MurX; activity in MraY-MurG coupled assays (MraY-MurG): good activity |
| CC(C)=CCC/C(C)=C\COP(=O)(O)O [compound 6, neryl phosphate] | – | – | – | – | IC50 (MurX [1]): 152 nM |
| N-glycolyl Park’s nucleotide-N^ε-dansylthiourea [compound 1] | – | – | – | – | Km (MurX [2]): 18.1 µM |
| Park’s nucleotide-N^ε-dansylthiourea [compound 2] | – | – | – | – | Km (MurX [2]): 17.9 µM; Vmax for neryl-lipid I synthesis by MurX (MurX [2]): 0.00269 µM/s |
| Tunicamycin [Tunicamycin (9)] | 9 | 42 | 72 | 72 | IC50 (MurX [1]): 2730 ± 138 nM |
| neryl-lipid I-N^ε-dansylthiourea [compound 5] | – | – | – | – | water-solubility (Water-solubility): > 50 µg/mL |
